Key:
Assay in all cases: Test C postemergence
Type in all cases: in vivo
[1] = system: galium (catchweed bedstraw, Galium aparine); conditions: Galium, post-emergence, 336 h, Postemergence, scale 0 to 100, read-out: Plant response rating, Galium
Description: (§1) Seeds of plant species selected from blackgrass (Alopecurus myosuroides), Italian ryegrass (Lolium multiflorum), winter wheat (Triticum aestivum), galium (catchweed bedstraw, Galium aparine), corn (Zea mays), large (Lg) crabgrass (Digitaria sanguinalis), giant foxtail (Setaria faberii), johnsongrass (Sorghum halepense), lambsquarters (Chenopodium album), morningglory (Ipomoea coccinea), yellow nutsedge (Cyperus esculentus), pigweed (Amaranthus retroflexus), ragweed (common ragweed, Ambrosia elatior), soybean (Glycine max), barnyardgrass (Echinochloa crus-galli), oilseed rape (Brassica napus), waterhemp (common waterhemp, Amaranthus rudis), and velvetleaf (Abutilon theophrasti) were planted into a blend of loam soil and sand and treated preemergence with test chemicals formulated in a non-phytotoxic solvent mixture which included a surfactant.
(§2) At the same time, plants selected from these crop and weed species and also chickweed (common chickweed, Stellaria media), kochia (Kochia scoparia), and wild oat (Avena fatua), were planted in pots containing Redi-Earth® planting medium (Scotts Company, 14111 Scottslawn Road, Marysville, Ohio 43041) comprising spaghnum peat moss, vermiculite, wetting agent and starter nutrients and treated with postemergence applications of test chemicals formulated in the same manner. Plants ranged in height from 2 to 18 cm (1- to 4-leaf stage) for postemergence treatments. Treated plants and controls were maintained in a greenhouse for 13 to 15 days, after which time all species were compared to controls and visually evaluated. Plant response ratings, summarized in Table C, are based on a scale of 0 to 100 where 0 is no effect and 100 is complete control. A dash (-) response means no test result.

kochia (Kochia scoparia) = conditions: Bassia scoparia, post-emergence, Postemergence, scale 0 to 100, read-out: Plant response rating, Kochia
Description: as §1, §2

[2] = system: large (Lg) crabgrass (Digitaria sanguinalis); conditions: Digitaria sanguinalis, post-emergence, 336 h, Postemergence, scale 0 to 100, read-out: Plant response rating, Crabgrass, Large
Description: as §1, §2

[3] = system: morningglory (Ipomoea coccinea); conditions: Ipomoea, post-emergence, 336 h, Postemergence, scale 0 to 100, read-out: Plant response rating, Morningglory
Description: as §1, §2

[4] = system: velvetleaf (Abutilon theophrasti); conditions: Abutilon theophrasti, post-emergence, Postemergence, scale 0 to 100, read-out: Plant response rating, Velvetleaf
Description: as §1, §2

[5] = system: winter wheat (Triticum aestivum); conditions: Triticum aestivum, post-emergence, 336 h, Postemergence, scale 0 to 100, read-out: Plant response rating, Wheat
Description: as §1, §2

Molecule `N#Cc1cccc(Oc2ncc(Cl)cn2)c1Oc1ccc(Cl)cn1` [Compound 16, 2-[(5-chloro-2-pyridinyl)oxy]-3-[(5-chloro-2-pyrimidinyl)oxy]benzonitrile] has a pest or weed control at 16 g/ha ([1]; 16 g ai/ha) of 60%, a pest or weed control at 31 g/ha ([1]; 31 g ai/ha) of 70% and a pest or weed control at 62 g/ha ([1]; 62 g ai/ha) of 70%. For the same molecule, the pest or weed control at 125 g/ha ([1]; 125 g ai/ha) was 95%, the pest or weed control at 16 g/ha (kochia (Kochia scoparia); 16 g ai/ha) was 90% and the pest or weed control at 31 g/ha (kochia (Kochia scoparia); 31 g ai/ha) was 90%. The pest or weed control at 62 g/ha (kochia (Kochia scoparia); 62 g ai/ha) was 90%, the pest or weed control at 125 g/ha (kochia (Kochia scoparia); 125 g ai/ha) was 95% and the pest or weed control at 16 g/ha ([2]; 16 g ai/ha) was 10%. It also gave a pest or weed control at 31 g/ha ([2]; 31 g ai/ha) of 15%, a pest or weed control at 62 g/ha ([2]; 62 g ai/ha) of 15% and a pest or weed control at 125 g/ha ([2]; 125 g ai/ha) of 20%. For the same molecule, the pest or weed control at 31 g/ha ([3]; 31 g ai/ha) was 90%, the pest or weed control at 62 g/ha ([3]; 62 g ai/ha) was 90% and the pest or weed control at 125 g/ha ([3]; 125 g ai/ha) was 95%. It also gave a pest or weed control at 31 g/ha ([4]; 31 g ai/ha) of 65%, a pest or weed control at 62 g/ha ([4]; 62 g ai/ha) of 60% and a pest or weed control at 125 g/ha ([4]; 125 g ai/ha) of 70%. The plant injury at 31 g/ha ([5]; 31 g ai/ha) was 0%, the plant injury at 62 g/ha ([5]; 62 g ai/ha) was 5% and the plant injury at 125 g/ha ([5]; 125 g ai/ha) was 0%.

— patent US20170190671A1, “BIS(ARYL)CATECHOL DERIVATIVES AS HERBICIDES” (E I DU PONT DE NEMOURS AND COMPANY, priority 2014, published 2017)
